From BindingDB's records for doi:10.7270/Q2PR7TCX (The Scripps Research Institute Molecular Screening Center, 2007)
Structures can show the parent of a compound that is named as a salt.

Target: Steroidogenic factor 1 (Homo sapiens, UniProt Q13285)
Assay: SF-1 inhibitors in Gal4 reporter counter-screen, dose response, counter-screen for RORA inhibitor project, cell-based, CHO-K1, Gal4-SF-1 LBD, luciferase luminescence (AID 611)
Details: not given

Steroidogenic factor 1, sequence (Q13285 whole entry, the tested form may be a part): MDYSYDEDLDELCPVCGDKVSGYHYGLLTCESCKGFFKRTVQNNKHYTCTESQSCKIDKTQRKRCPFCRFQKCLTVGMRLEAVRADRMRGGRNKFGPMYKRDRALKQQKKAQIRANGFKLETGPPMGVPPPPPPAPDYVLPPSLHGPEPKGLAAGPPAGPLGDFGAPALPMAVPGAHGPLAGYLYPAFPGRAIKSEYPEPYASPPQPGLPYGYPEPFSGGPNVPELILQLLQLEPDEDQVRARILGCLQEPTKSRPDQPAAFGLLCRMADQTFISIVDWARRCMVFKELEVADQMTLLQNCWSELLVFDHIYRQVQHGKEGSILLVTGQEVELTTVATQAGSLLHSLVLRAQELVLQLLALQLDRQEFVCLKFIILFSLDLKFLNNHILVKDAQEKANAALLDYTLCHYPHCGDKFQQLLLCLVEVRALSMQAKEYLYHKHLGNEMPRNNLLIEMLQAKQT

Q: `O=c1cc(-c2c(F)c(F)c(F)c(F)c2F)oc2c(F)c(F)c(F)c(F)c12` [5,6,7,8-tetrafluoro-2-(2,3,4,5,6-pentafluorophenyl)-1-benzopyran-4-one] was tested. Which IC50 did it give?
A: 4.81 µM

Q: How did the IC50 turn out when `O=C(NC1CC1)c1ccc(-c2nc3ccccc3s2)s1` [5-(1,3-benzothiazol-2-yl)-N-cyclopropyl-2-thiophenecarboxamide] was run?
A: 9.53 µM

Q: For `Cc1oc(-c2ccc3c(c2)OCCO3)cc1C(=O)O` [5-(2,3-dihydro-1,4-benzodioxin-6-yl)-2-methyl-3-furancarboxylic acid], which IC50 is on record?
A: 3.06 µM

Q: `COc1ccc(-c2nc(-c3ccccc3)no2)c(OC)c1` [5-(2,4-dimethoxyphenyl)-3-phenyl-1,2,4-oxadiazole] was tested. Which IC50 did it give?
A: 2.82 µM

Q: For `Cc1ccc(-c2nc(-c3ccccc3)no2)c(Cl)c1` [5-(2-chloranyl-4-methyl-phenyl)-3-phenyl-1,2,4-oxadiazole], which IC50 is on record?
A: 3.34 µM

Q: Which IC50 does the source give for `Cc1ccc(-c2nc(-c3ccccn3)no2)cc1Cl` [5-(3-chloranyl-4-methyl-phenyl)-3-pyridin-2-yl-1,2,4-oxadiazole] here?
A: 2.22 µM

Q: How did the IC50 turn out when `CCOc1ccc(OCc2ccc(C(=O)OCc3ccccn3)o2)cc1` [5-(4-Ethoxy-phenoxymethyl)-furan-2-carboxylic acid pyridin-2-ylmethyl ester] was run?
A: > 11 µM

Q: For `COc1ccccc1-n1nnnc1S(=O)(=O)Cc1ccc(Cl)cc1` [5-(4-chlorobenzyl)sulfonyl-1-(2-methoxyphenyl)tetrazole], which IC50 is on record?
A: 7.09 µM

Q: Which IC50 does the source give for `Fc1ccc(-c2nnc(NC3=NCCCCC3)o2)cc1` [5-(4-fluorophenyl)-N-(3,4,5,6-tetrahydro-2H-azepin-7-yl)-1,3,4-oxadiazol-2-amine] here?
A: > 3.67 µM

Q: Which IC50 does the source give for `Cc1ccc(-c2nc(-c3ccccn3)no2)cc1` [5-(4-methylphenyl)-3-(2-pyridinyl)-1,2,4-oxadiazole] here?
A: 1.05 µM

Q: Which IC50 does the source give for `Cc1ccc(-c2nnc(Nc3ccccc3)o2)cc1` [5-(4-methylphenyl)-N-phenyl-1,3,4-oxadiazol-2-amine] here?
A: > 3.67 µM

Q: Which IC50 does the source give for `Oc1c(CN2CCOCC2)cc(COCc2ccccc2)c2cccnc12` [5-(benzoxymethyl)-7-(morpholinomethyl)quinolin-8-ol] here?
A: 5.97 µM

Q: With `Oc1c(CN2CCCCC2)cc(COCc2ccccc2)c2cccnc12` [5-(benzoxymethyl)-7-(piperidinomethyl)quinolin-8-ol] as the compound, how does the IC50 read?
A: 7.58 µM

Q: How did the IC50 turn out when `NCCCCCc1nnc(SCc2ccccc2Cl)o1` [5-[5-[(2-chlorobenzyl)thio]-1,3,4-oxadiazol-2-yl]pentylamine;hydrochloride] was run?
A: > 99 µM

Q: Which IC50 does the source give for `O=S(=O)(NCc1ccncc1)c1ccc(Br)s1` [5-bromanyl-N-(pyridin-4-ylmethyl)thiophene-2-sulfonamide] here?
A: 3.74 µM

Q: Which IC50 does the source give for `Oc1c(CN2CCN(c3ccccn3)CC2)cc(Cl)c2cccnc12` [5-chloranyl-7-[(4-pyridin-2-ylpiperazin-1-yl)methyl]quinolin-8-ol] here?
A: 6.65 µM

Q: Which IC50 does the source give for `O=C(Nc1nc(-c2ccccn2)cs1)c1ccc(Cl)s1` [5-chloranyl-N-(4-pyridin-2-yl-1,3-thiazol-2-yl)thiophene-2-carboxamide] here?
A: 4 µM

Q: How did the IC50 turn out when `Cc1ccc(S(=O)(=O)Nc2cccc3ncccc23)s1` [5-methyl-N-quinolin-5-ylthiophene-2-sulfonamide] was run?
A: 5.33 µM

Q: Which IC50 does the source give for `O=S(=O)(c1ccccc1)N1CCN(c2cc(-c3ccccc3)nc3ncnn23)CC1` [5-phenyl-7-[4-(phenylsulfonyl)piperazin-1-yl]-[1,2,4]triazolo[1,5-a]pyrimidine] here?
A: 8.96 µM

Q: Which IC50 does the source give for `Cn1nc(C(C)(C)C)cc1C(=O)NCc1ccc(N2CCCC2=O)cc1` [5-tert-Butyl-2-methyl-2H-pyrazole-3-carboxylic acid 4-(2-oxo-pyrrolidin-1-yl)-benzylamide] here?
A: 3.18 µM

Q: `O=S1(=O)Nc2c(ccc3cccnc23)-c2ccccc21` [5H-quinolino[8,7-c][1,2]benzothiazine 6,6-dioxide] was tested. Which IC50 did it give?
A: 4.43 µM

Q: Which IC50 does the source give for `C[C@@]1(CO)[C@H](O)CC[C@@]2(C)[C@H]1CC[C@H]1C[C@@H]3C[C@@]12CC[C@]3(O)CO` [6,13-di(hydroxymethyl)-2,6-dimethyl-(1S,2S,5R,6R,7R,10S,12R,13R)-tetracyclo[10.3.1.01,10.02,7]hexadecane-5,13-diol (Aphidicolin)] here?
A: 0.519 µM

Q: Which IC50 does the source give for `COC(=O)C1C(=CN2CCCc3ccccc32)NC(=O)NC1c1ccc(F)cc1` (stereo unspecified) [6-(3,4-dihydro-2H-quinolin-1-ylmethyl)-4-(4-fluorophenyl)-2-keto-3,4-dihydro-1H-pyrimidine-5-carboxylic acid methyl ester] here?
A: 6.66 µM

Q: Which IC50 does the source give for `C[S+]([O-])c1nc(-c2ccc(Br)cc2)cc(-c2ccccc2)c1C#N` (stereo unspecified) [6-(4-bromophenyl)-2-(methylsulfinyl)-4-phenylnicotinonitrile] here?
A: 8.07 µM

Q: How did the IC50 turn out when `CCOc1ccc(C2=Nn3c(nnc3-c3ccccc3OC)SC2)cc1` [6-(4-ethoxyphenyl)-3-(2-methoxyphenyl)-7H-[1,2,4]triazolo[3,4-b][1,3,4]thiadiazine] was run?
A: 0.39 µM

Q: `CCc1ccc(-c2cn3nc(C)c(C)nc3n2)cc1` [6-(4-ethylphenyl)-2,3-dimethyl-imidazo[1,2-b][1,2,4]triazine] was tested. Which IC50 did it give?
A: 1.73 µM

Q: With `O=C(O)CCCCCn1c(O)csc1=S` [6-(4-keto-2-thioxo-thiazolidin-3-yl)hexanoic acid] as the compound, how does the IC50 read?
A: > 99 µM

Q: `CC(C)Cn1c(N)c(C(=O)CSc2ccc3c(c2)OCCO3)c(=O)n(C)c1=O` [6-amino-5-[2-(2,3-dihydro-1,4-benzodioxin-6-ylsulfanyl)acetyl]-3-methyl-1-(2-methylpropyl)pyrimidine-2,4-dione] was tested. Which IC50 did it give?
A: 5.29 µM

Q: For `Cc1ccc(Nc2cc(C)nn2-c2nc(C)cc(O)n2)cc1` [6-methyl-2-[3-methyl-5-(4-methylanilino)pyrazol-1-yl]-1H-pyrimidin-4-one], which IC50 is on record?
A: 4.15 µM

Q: How did the IC50 turn out when `Cc1ccc2nc(-c3ccccc3)cn2c1` [6-methyl-2-phenyl-imidazo[1,2-a]pyridine;hydrobromide] was run?
A: 1.93 µM

Q: How did the IC50 turn out when `Cn1c(-c2ccccc2)cc2c3no[n+]([O-])c3ccc21` [6-methyl-3-oxidanidyl-7-phenyl-pyrrolo[2,3-g][2,1,3]benzoxadiazol-3-ium] was run?
A: 6.06 µM

Q: Which IC50 does the source give for `COc1cccc(-c2nnc3n2N=C(C(C)(C)C)CS3)c1` [6-tert-butyl-3-(3-methoxyphenyl)-7H-[1,2,4]triazolo[3,4-b][1,3,4]thiadiazine] here?
A: 7.59 µM

Q: Which IC50 does the source give for `C=CCOc1nc2c(c(=O)n(C)c(=O)n2C)n1Cc1ccc(Cl)cc1Cl` [7-[(2,4-dichlorophenyl)methyl]-1,3-dimethyl-8-prop-2-enoxy-purine-2,6-dione] here?
A: > 33 µM

Q: With `C=CCOc1nc2c(c(=O)n(C)c(=O)n2C)n1Cc1ccc(Cl)cc1` [7-[(4-chlorophenyl)methyl]-1,3-dimethyl-8-prop-2-enoxy-purine-2,6-dione] as the compound, how does the IC50 read?
A: > 11 µM

Q: With `COc1cccc(N2CCN(c3ncnc4c3[nH]c3ccc(F)cc34)CC2C)c1` (stereo unspecified) [8-fluoranyl-4-[4-(3-methoxyphenyl)-3-methyl-piperazin-1-yl]-5H-pyrimido[5,4-b]indole] as the compound, how does the IC50 read?
A: 1.44 µM

Q: With `Cc1nnc(SC(=O)N2c3ccccc3Sc3ccccc32)s1` [10-phenothiazinecarbothioic acid S-(5-methyl-1,3,4-thiadiazol-2-yl) ester] as the compound, how does the IC50 read?
A: 6.07 µM

Q: `O=C(OC1CCOC1=O)c1ccc(-c2nc3ccccc3s2)s1` (stereo unspecified) [(2-oxidanylideneoxolan-3-yl) 5-(1,3-benzothiazol-2-yl)thiophene-2-carboxylate] was tested. Which IC50 did it give?
A: 5.18 µM

Q: Which IC50 does the source give for `O=C1C(=CNc2ccc3c(c2)OCO3)CCc2ccccc21` [(2E)-2-[(1,3-benzodioxol-5-ylamino)methylene]tetralin-1-one] here?
A: 3.32 µM

Q: How did the IC50 turn out when `COc1cccc2sc(Nc3nc(-c4ccccn4)cs3)nc12` [(4-methoxy-1,3-benzothiazol-2-yl)-[4-(2-pyridyl)thiazol-2-yl]amine] was run?
A: 3.89 µM

Q: `CN=c1scc(C)n1N=Cc1ccc(O)cc1O` [(4E)-4-[[(4-methyl-2-methylimino-1,3-thiazol-3-yl)amino]methylidene]-3-oxidanyl-cyclohexa-2,5-dien-1-one] was tested. Which IC50 did it give?
A: 1.94 µM

Q: `COc1ccc(CCNc2c(C)c(C)nc3ncnn23)cc1` [(5,6-Dimethyl-[1,2,4]triazolo[1,5-a]pyrimidin-7-yl)-[2-(4-methoxy-phenyl)-ethyl]-amine] was tested. Which IC50 did it give?
A: 6.45 µM

Q: For `COc1cccc2c1C(=O)c1c(O)c3c(c(O)c1C2=O)C[C@@](O)(C(C)=O)C[C@@H]3O[C@H]1C[C@H](N)[C@H](O)[C@H](C)O1` [(7S,9S)-9-acetyl-7-[(2R,4S,5S,6S)-4-amino-5-hydroxy-6-methyloxan-2-yl]oxy-6,9,11-trihydroxy-4-methoxy-8,10-dihydro-7H-tetracene-5,12-dione;hydrochloride], which IC50 is on record?
A: 0.409 µM

Q: For `C[C@H]1CCCC=CC2C[C@H](O)CC2[C@H](O)C=CC(=O)O1` (stereo partly drawn) [(7S,12R,15S)-12,15-dihydroxy-7-methyl-8-oxabicyclo[11.3.0]hexadeca-2,10-dien-9-one], which IC50 is on record?
A: 8.95 µM

Q: Which IC50 does the source give for `Cc1ccc(C(=O)CC=Nc2ccccn2)cc1` [(E)-1-(4-methylphenyl)-3-(2-pyridinylamino)-2-propen-1-one] here?
A: 1.49 µM

Same assay, conditions: inactive by the depositor's call

Q: For `COc1cccc(Cn2c(NCc3ccco3)nc3c2c(=O)n(C)c(=O)n3C)c1` [8-(2-furanylmethylamino)-7-[(3-methoxyphenyl)methyl]-1,3-dimethylpurine-2,6-dione], which IC50 is on record?
A: 10.7 µM

Q: `CCCOc1ccccc1C1CC(=O)Nc2cc3c(cc21)OCCO3` (stereo unspecified) [9-(2-propoxyphenyl)-2,3,8,9-tetrahydro[1,4]dioxino[2,3-g]quinolin-7(6H)-one] was tested. Which IC50 did it give?
A: 10.6 µM

Q: `COc1cccc(OC)c1C1=NCC(=O)Nc2c1oc1ccc(Br)cc21` [9-bromanyl-5-(2,6-dimethoxyphenyl)-1,3-dihydro-[1]benzofuro[3,2-e][1,4]diazepin-2-one] was tested. Which IC50 did it give?
A: 15.4 µM

Q: How did the IC50 turn out when `COc1ccc(CNc2cc(C)nc3ncnn23)c(OC)c1` [(2,4-Dimethoxy-benzyl)-(5-methyl-[1,2,4]triazolo[1,5-a]pyrimidin-7-yl)-amine] was run?
A: 23.4 µM

Q: With `Cc1ccc2c(c1)nnn2C1CCN(S(=O)(=O)c2ccc(C(=O)N3C(C)CCCC3C)cc2)CC1` (stereo unspecified) [(2,6-Dimethyl-piperidin-1-yl)-{4-[4-(5-methyl-benzotriazol-1-yl)-piperidine-1-sulfonyl]-phenyl}-methanone] as the compound, how does the IC50 read?
A: 10.6 µM

Q: Which IC50 does the source give for `Cc1nc(NC(C)c2ccccc2)c2oc3ccccc3c2n1` (stereo unspecified) [(2-methylbenzofuro[3,2-d]pyrimidin-4-yl)-(1-phenylethyl)amine] here?
A: 23.1 µM

Q: With `CCc1c(C)nc2ncnn2c1NCCc1ccc(OC)cc1` [(6-Ethyl-5-methyl-[1,2,4]triazolo[1,5-a]pyrimidin-7-yl)-[2-(4-methoxy-phenyl)-ethyl]-amine] as the compound, how does the IC50 read?
A: 11.6 µM
